Entries after “also recorded” stand apart in the source; their conditions may differ.
Experiments:
Format in all cases: cell-based
SNB-19 cells = assay: High-content screen of paclitaxel-induced apoptosis, SNB-19 cells; conditions: 26 h
Method: The cells chosen for this study were mouse connective tissue fibroblasts (L-929; ATCC CCL-1) and a highly invasive glioblastoma cell line (SNB-19; ATCC CRL-2219) (Welch et al., In Vitro Cell. Dev. Bid. 31:610, 1995). The day before treatment with an apoptosis inducing drug, 3500 cells were placed into each well of a 96-well plate and incubated overnight at 37° C. in a humidified 5% CO2 atmosphere. The following day, the culture medium was removed from each well and replaced with fresh medium containing various concentrations of paclitaxel (0-50 μM) from a 20 mM stock made in DMSO. The maximal concentration of DMSO used in these experiments was 0.25%. The cells were then incubated for 26 h as above. At the end of the paclitaxel treatment period, each well received fresh medium containing 750 nM MITOTRACKER™ Red (Molecular Probes; Eugene, Oreg.) and 3 μg/ml Hoechst 33342 DNA-binding dye (Molecular Probes) and was incubated as above for 20 mm. Each well on the plate was then washed with HBSS and fixed with 3.7% formaldehyde in HBSS for 15 mm at room temperature. […] The fluorescence signals from plates stored this way were stable for at least two weeks after preparation. As in the nuclear translocation assay, fluorescence reagents can be designed to convert this assay into a live cell high-content screen.
The fluorescence intensity of intracellular MITOTRACKER™ Red, Hoechst 33342, and BODIPY™ FL phallacidin was measured with the cell screening system as described supra. […]
A total of 50-250 cells were measured per image field. For each field of cells, the following calculations were performed: (1) The average nuclear area (μm^2) was calculated by dividing the total nuclear area in a field by the number of nuclei detected. (2) The average nuclear perimeter (μm) was calculated by dividing the sum of the perimeters of all nuclei in a field by the number of nuclei detected in that field. […] (3) The average nuclear brightness was calculated by dividing the integrated intensity of the entire field of nuclei by the number of nuclei in that field. […]

BHK cells = assay: Apoptosis actin reorganization (f-actin content), BHK cells; conditions: 30 hours
Method: (§1) Cells were plated in 96-well plates at densities of 3×10^3 to 1×10^4 cells/well. The following day apoptotic inducers were added at indicated concentrations. Cells were incubated for the indicated time periods (usually 16-30 hours). The next day the medium was removed and cells were stained with 5 μg/ml Hoechst (Molecular Probes, Inc.) in fresh medium and incubated for 30 minutes at […]. Cells were washed in HBSS and fixed with 3.7% formaldehyde in HBSS at room temperature. Plates were washed with HBSS and permeabilized with 0.5% v/v Triton X-100 in HBSS at room temperature. Plates were washed in HBSS and stained with 100 μl of 1 U/ml of Alexa 488 Phalloidin stock (100 μl/well, Molecular Probes, Inc.). Cells were washed 2×with HBSS at RT and the plate was sealed.
(§2) Quantitation of f-actin content was accomplished by measuring the intensity of phalloidin staining around the nucleus. This was determined to be a reasonable approximation of a full cytoplasmic average of the intensity. The mask used to approximate this cytoplasmic measure was derived from the nuclear mask defined by the Hoechst stain. Derivation was accomplished by combinations of erosions and dilations.

MCF-7 cells = assay: Apoptosis actin reorganization (f-actin content), MCF-7 cells; conditions: 30 hours
Method: as §1, §2

CC(=O)O[C@H]1C(=O)[C@@]2(C)[C@H]([C@H](OC(=O)c3ccccc3)[C@]3(O)C[C@H](OC(=O)[C@H](O)[C@@H](NC(=O)c4ccccc4)c4ccccc4)C(C)=C1C3(C)C)[C@]1(OC(C)=O)CO[C@@H]1C[C@@H]2O [paclitaxel]
mitochondrial potential (SNB-19 cells; 10 nM paclitaxel): minimal at the same concentration of paclitaxel
concentration at which area, brightness, and fragmentation of the nucleus and actin polymerization values reached a maximum value (SNB-19 cells): 10 nM
all the parameters measured at increasing concentrations (SNB-19 cells; >10 nM paclitaxel): approached control levels
change in peri-nuclear f-actin content (BHK cells): results that are more variable
change in peri-nuclear f-actin content (BHK cells; listed as Paclitaxel): highly variable
change in peri-nuclear f-actin content (MCF-7 cells): highly variable; also recorded: highly variable and not significant

— patent publication US6875578B2, “System for cell-based screening” (priority 1997, dated 2005)
